Reference: PubChem BioAssay (NCI)
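Grown in 96-well plates, cells were treated for 48 hours with each compound at five concentrations. Insufficient inhibition: endpoint recorded as highest concentration tested. GI50 = concentration required for 50% inhibition of growth. The concentration for full growth arrest is given as TGI.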 *1 amine or outer side, *2 acyl side, *3 side chain or, on linkers, in order; H or OH if unused. Where a SMILES comes first, the peptide text is derived from it. Bridges are numbered along the chain shown (N, C = ends). Roman numbers before positions name the chains, in order. [ ]: non-standard residue; d: D form. Actinocin(9to1) = Cc1c2oc3c(C)ccc(C(=O)[*:1])c3nc-2c(C(=O)[*:2])c(N)c1=O; NMeV = CN[CH](C(=O)O)C(C)C; Sar = CNCC(=O)O

What was measured:
Experiment in all cases: growth of human tumour cells (NCI), 48 h
SW-620 colon = system: SW-620 colon
M14 melanoma = system: M14 melanoma
TK-10 renal = system: TK-10 renal
SK-MEL-28 melanoma = system: SK-MEL-28 melanoma
EKVX NSCLC = system: EKVX NSCLC
UACC-62 melanoma = system: UACC-62 melanoma
T-47D breast = system: T-47D breast
PC-3 prostate = system: PC-3 prostate

Cc1ccc(S(=O)(=O)CC2CCCn3c2c(C#N)c2ccccc23)cc1 (stereo not given)
TGI (SW-620 colon): > 100 µM
TGI (M14 melanoma): > 100 µM
TGI (TK-10 renal): > 100 µM
TGI (SK-MEL-28 melanoma): > 100 µM
TGI (EKVX NSCLC): > 100 µM
TGI (UACC-62 melanoma): > 100 µM
TGI (T-47D breast): > 100 µM
TGI (PC-3 prostate): > 100 µM

C=C(C)[C@@H]1CC[C@]2(C(=O)OC3OC(COC4OC(CO)C(OC5OC(C)C(O)C(O)C5O)C(O)C4O)C(O)C(O)C3O)CC[C@]3(C)[C@H](CC[C@@H]4[C@@]5(C)CC[C@H](O)[C@@](C)(CO)[C@@H]5CC[C@]43C)[C@@H]12 (stereo not given in full)
TGI (SW-620 colon): > 10 µM
TGI (M14 melanoma): > 10 µM
TGI (TK-10 renal): > 10 µM
TGI (SK-MEL-28 melanoma): > 10 µM
TGI (EKVX NSCLC): > 10 µM
TGI (UACC-62 melanoma): 4.76 µM
TGI (T-47D breast): > 10 µM
TGI (PC-3 prostate): > 8.45 µM

O=C1Sc2cc3ccccc3cc2C(=O)Sc2cc3ccccc3cc21
TGI (SW-620 colon): > 100 µM
TGI (M14 melanoma): > 63.9 µM
TGI (TK-10 renal): > 100 µM
TGI (SK-MEL-28 melanoma): > 85.4 µM
TGI (EKVX NSCLC): > 100 µM
TGI (UACC-62 melanoma): 67.2 µM
TGI (T-47D breast): > 75 µM
TGI (PC-3 prostate): > 100 µM

O=c1[nH]nc(N/N=C\c2ccc(Cl)cc2)c2ccccc12
TGI (SW-620 colon): > 100 µM
TGI (M14 melanoma): 35.4 µM
TGI (TK-10 renal): 54.4 µM
TGI (SK-MEL-28 melanoma): 56.9 µM
TGI (EKVX NSCLC): > 100 µM
TGI (UACC-62 melanoma): 39.4 µM
TGI (T-47D breast): 69.2 µM
TGI (PC-3 prostate): 40.2 µM

Cc1c2oc3c(C)ccc(C(=O)NC4C(=O)NC(Cc5ccc(O)cc5)C(=O)N5CCCC5C(=O)N(C)CC(=O)N(C)C(C(C)C)C(=O)OC4C)c3nc-2c(C(=O)NC2C(=O)NC(Cc3ccc(O)cc3)C(=O)N3CCCC3C(=O)N(C)CC(=O)N(C)C(C(C)C)C(=O)OC2C)c(N)c1=O (stereo not given) (I: TYP[Sar][NMeV] / II: TYP[Sar][NMeV]; ester I:1-I:C, II:1-II:C; linker I:N-II:N via Actinocin(9to1); configuration not given here)
TGI (SW-620 colon): > 100 µM
TGI (M14 melanoma): 28.9 µM
TGI (TK-10 renal): > 80.3 µM
TGI (SK-MEL-28 melanoma): > 87 µM
TGI (EKVX NSCLC): > 100 µM
TGI (UACC-62 melanoma): > 67 µM
TGI (T-47D breast): > 79.9 µM
TGI (PC-3 prostate): > 100 µM

CN1CCCC(OC(=O)c2cc3cc(CCl)ccc3oc2=O)C1 (stereo not given)
TGI (SW-620 colon): 64.8 µM
TGI (M14 melanoma): 39.3 µM
TGI (TK-10 renal): 48.8 µM
TGI (SK-MEL-28 melanoma): 50.3 µM
TGI (EKVX NSCLC): 91.5 µM
TGI (UACC-62 melanoma): 31.6 µM
TGI (T-47D breast): > 100 µM
TGI (PC-3 prostate): 41.3 µM

C#Cc1cccc(Nc2ncnc3cc(OCCOC)c(OCCOC)cc23)c1
TGI (SW-620 colon): > 100 µM
TGI (M14 melanoma): > 100 µM
GI50 (TK-10 renal): 0.196 µM
TGI (TK-10 renal): 47.8 µM
TGI (SK-MEL-28 melanoma): > 100 µM
GI50 (EKVX NSCLC): 0.301 µM
TGI (EKVX NSCLC): > 93.7 µM
TGI (UACC-62 melanoma): 38 µM
GI50 (T-47D breast): 4.17 µM
TGI (T-47D breast): > 100 µM
TGI (PC-3 prostate): > 100 µM

O=C1/C(=C/C=C/c2ccccc2)CCC1CNc1ccc(Br)cc1 (stereo not given)
TGI (SW-620 colon): > 100 µM
TGI (M14 melanoma): > 100 µM
TGI (TK-10 renal): > 100 µM
TGI (SK-MEL-28 melanoma): > 100 µM
TGI (EKVX NSCLC): > 100 µM
TGI (UACC-62 melanoma): > 100 µM
TGI (T-47D breast): > 100 µM
TGI (PC-3 prostate): > 100 µM

CC(=O)NCC1OC2COC(c3ccccc3)OC2C2N=C(c3ccccc3)OC12 (stereo not given)
TGI (SW-620 colon): > 100 µM
TGI (M14 melanoma): > 100 µM
TGI (TK-10 renal): > 100 µM
TGI (SK-MEL-28 melanoma): > 100 µM
TGI (EKVX NSCLC): > 100 µM
TGI (UACC-62 melanoma): > 100 µM
TGI (T-47D breast): 57.7 µM
TGI (PC-3 prostate): > 100 µM

CC(C)Oc1cc2c(cc1O)CC[C@@H]1[C@@H]2CC[C@]2(C)[C@@H](O)CC[C@@H]12
TGI (SW-620 colon): 27.2 µM
TGI (M14 melanoma): 18.4 µM
TGI (TK-10 renal): 54.6 µM
TGI (SK-MEL-28 melanoma): 56.6 µM
TGI (EKVX NSCLC): > 62 µM
TGI (UACC-62 melanoma): 13.2 µM
TGI (T-47D breast): 35.7 µM
TGI (PC-3 prostate): > 67.4 µM

CCn1c(SCc2nnc(Nc3ccccc3)s2)nc2ccccc2c1=O
TGI (SW-620 colon): > 68.3 µM
TGI (M14 melanoma): > 61.4 µM
TGI (TK-10 renal): 12.3 µM
TGI (SK-MEL-28 melanoma): 60.8 µM
TGI (EKVX NSCLC): 17.3 µM
TGI (UACC-62 melanoma): 11.9 µM
TGI (T-47D breast): 27 µM
TGI (PC-3 prostate): > 67.4 µM

COCCN(C(=O)c1ccccc1)C1CCC(=O)c2[nH]c3ccccc3c21 (stereo not given)
TGI (SW-620 colon): 23.3 µM
TGI (M14 melanoma): 20.4 µM
TGI (TK-10 renal): 35.5 µM
TGI (SK-MEL-28 melanoma): 16 µM
TGI (EKVX NSCLC): 25.7 µM
TGI (UACC-62 melanoma): 36.5 µM
TGI (T-47D breast): 34.4 µM
TGI (PC-3 prostate): 12.8 µM

O=C(O)Cn1ncn(NC(=O)Cc2ccccc2)c1=S
TGI (SW-620 colon): > 10 µM
TGI (M14 melanoma): > 10 µM
TGI (TK-10 renal): > 10 µM
TGI (SK-MEL-28 melanoma): > 10 µM
TGI (EKVX NSCLC): > 10 µM
TGI (UACC-62 melanoma): > 10 µM
TGI (T-47D breast): > 10 µM
TGI (PC-3 prostate): > 10 µM

CN(c1ccc(Cl)cc1)S(=O)(=O)c1ccccc1
TGI (SW-620 colon): > 100 µM
TGI (M14 melanoma): > 100 µM
TGI (TK-10 renal): > 100 µM
TGI (SK-MEL-28 melanoma): > 100 µM
TGI (EKVX NSCLC): > 100 µM
TGI (UACC-62 melanoma): > 100 µM
TGI (T-47D breast): > 100 µM
TGI (PC-3 prostate): > 100 µM
